Values of other authors as cited in patent US11753409B2, “Crystalline salts of a B-RAF kinase inhibitor” (Xynomic Pharmaceuticals, Inc., priority 2017, dated 2023).

Experiments:
[1] = treated mice; cited from earlier work
[2] = tested on: B-RAF-mutant melanomas and colorectal carcinomas; details: cited from earlier work
wild-type cells = details: at 1,000 nmol/L; cited from earlier work
[3] = rats, up to 60 mg/kg daily for 2 weeks; cited from earlier work
[4] = tested on: human B-RAF-mutant melanoma cells; details: cited from earlier work
A375 melanoma = details: particularly in combination with trametinib; cited from earlier work

Compound: CCCS(=O)(=O)Nc1ccc(F)c(-n2cc(-c3cncnc3)c3nc(N(C)C4CCN(CC)CC4)ccc32)c1F [BI 882370, N-(3-(5-((1-ethylpiperidin-4-yl)(methyl)amino)-3-(pyrimidin-5-yl)-1H-pyrrolo[3,2-b]pyridin-1-yl)-2,4-difluorophenyl)propane-1-sulfonamide]
- Body weight loss or clinical signs of intolerability [1]: did not show any body weight loss or clinical signs of intolerability
- Pathologic changes in several major organs, including skin [1]: no pathologic changes were observed
- Efficacy compared with vemurafenib, dabrafenib, or trametinib ([2]; 25 mg/kg twice daily, oral): superior efficacy
- Efficacy in mouse models ([2]; solution administered orally): efficacious
- Effect on wild-type cells (wild-type cells): not affected
- Toxicity (clinical chemistry, hematology, pathology, toxicogenomics) [3]: lacked toxicity
- Potency, inhibition of proliferation [4]: 1 to 10 nM
- Potency relative to vemurafenib ([4]; higher potency than vemurafenib): 100 times
- Activity in vemurafenib-resistant model (A375 melanoma): active
